Tests used:
[1] = test system: caterpillars of the armyworm (Spodoptera frugiperda); test: Spodoptera frugiperda test; format: in vivo; details: 500 ppm, dipped cabbage leaves
Description: Spodoptera Frugiperda Test • Solvent: 7 parts by weight of dimethylformamide • Emulsifier: 2 parts by weight of alkylaryl polyglycol ether To produce a suitable preparation of active compound, 1 part by weight of active compound is mixed with the stated amounts of solvent and emulsifier, and the concentrate is diluted with emulsifier-containing water to the desired concentration. Cabbage leaves (Brassica oleracea) are treated by being dipped into the preparation of active compound of the desired concentration and are populated with caterpillars of the armyworm (Spodoptera frugiperda) while the leaves are still moist. After the desired period of time, the kill in % is determined. 100% means that all caterpillar larvae have been killed; 0% means that none of the caterpillar have been killed.

[2] = test system: Alopecurus; test: Post-emergence test, Alopecurus; format: in vivo; details: post-emergence/greenhouse; 250 g a.i./ha; after three weeks
Description: (§1) • Solvent: 5 parts by weight of acetone • Emulsifier: 1 part by weight of alkylaryl polyglycol ether
(§2) To produce a suitable preparation of active compound, 1 part by weight of active compound is mixed with the stated amount of solvent, the stated amount of emulsifier is added and the concentrate is diluted with water to the desired concentration.
(§3) Test plants of a height of 5-15 cm are sprayed with the preparation of active compound such that the particular amounts of active compound desired are applied per unit area. The concentration of the spray liquor is chosen such that the particular amounts of active compound desired are applied in 1000 l of water/ha.
(§4) After three weeks, the degree of damage to the plants is rated in % damage in comparison to the development of the untreated control.
(§5) The figures denote: • 0% =no effect (like untreated control) • 100% =total destruction

[3] = test system: Avena fatua; test: Post-emergence test, Avena fatua; format: in vivo; details: post-emergence/greenhouse; 250 g a.i./ha; after three weeks
Description: as §1, §2, §3, §4, §5

[4] = test system: Setaria; test: Post-emergence test, Setaria; format: in vivo; details: post-emergence/greenhouse; 250 g a.i./ha; after three weeks
Description: as §1, §2, §3, §4, §5

[5] = test system: Sinapis; test: Post-emergence test, Sinapis; format: in vivo; details: post-emergence/greenhouse; 250 g a.i./ha; after three weeks
Description: as §1, §2, §3, §4, §5

[6] = test system: Wheat; test: Pre-emergence test, Wheat; format: in vivo; details: pre-emergence/greenhouse; 60 g a.i./ha; after three weeks; crop
Description: as §1, §2
(§6) Seeds of the test plants are sown in normal soil. After about 24 hours, the soil is sprayed with the preparation of active compound such that the particular amounts of active compound desired are applied per unit area. The concentration of the spray liquor is chosen such that the particular amounts of active compound desired are applied in 1000 l of water/ha.
as §4, §5

[7] = test system: Soya bean; test: Pre-emergence test, Soya bean; format: in vivo; details: pre-emergence/greenhouse; 60 g a.i./ha; after three weeks; crop
Description: as §1, §2, §6, §4, §5

[8] = test system: Digitaria; test: Pre-emergence test, Digitaria; format: in vivo; details: pre-emergence/greenhouse; 60 g a.i./ha; after three weeks
Description: as §1, §2, §6, §4, §5

[9] = test system: Lolium; test: Pre-emergence test, Lolium; format: in vivo; details: pre-emergence/greenhouse; 60 g a.i./ha; after three weeks
Description: as §1, §2, §6, §4, §5

[10] = test system: Setaria; test: Pre-emergence test, Setaria; format: in vivo; details: pre-emergence/greenhouse; 60 g a.i./ha; after three weeks
Description: as §1, §2, §6, §4, §5

[11] = test system: Matricaria; test: Pre-emergence test, Matricaria; format: in vivo; details: pre-emergence/greenhouse; 60 g a.i./ha; after three weeks
Description: as §1, §2, §6, §4, §5

[12] = test system: Pyricularia oryzae; format: cell-based; details: 50% inhibition of fungal growth, tested at 0.1, 1, 10 and 100 ppm, 22° C., 3-5 days, photometric 620 nm
[13] = test system: Septoria tritici; test: In vitro test for the ED50 determination in microorganisms, Septoria tritici; format: cell-based; details: 50% inhibition of fungal growth, tested at 0.1, 1, 10 and 100 ppm, 22° C., 3-5 days, photometric 620 nm
[14] = test system: Ustilago avenae; test: In vitro test for the ED50 determination in microorganisms, Ustilago avenae; format: cell-based; details: 50% inhibition of fungal growth, tested at 0.1, 1, 10 and 100 ppm, 22° C., 3-5 days, photometric 620 nm
[15] = test system: Sphaerotheca fuliginea; test: Sphaerotheca test (cucumber)/protective; format: in vivo; details: protective, 100 g/ha, 7 days after inoculation
Description: (§7) Sphaerotheca Test (Cucumber)/Protective […] To produce a suitable preparation of active compound, 1 part by weight of active compound is mixed with the stated amounts of solvent and emulsifier, and the concentrate is diluted with water to the desired concentration. To test for protective activity, young plants are sprayed with the preparation of active compound at the stated application rate. After the spray coating has dried on, the plants are inoculated with an aqueous spore suspension of Sphaerotheca fuliginea. The plants are then placed in a greenhouse at about 23° C. and a relative atmospheric humidity of about 70%.

[16] = test system: apple scab pathogen Venturia inaequalis; test: Venturia test (apple)/protective; format: in vivo; details: protective, 100 g/ha, 10 days after inoculation
Description: as §7, with “Venturia” for “Sphaerotheca”, “(Apple)/Protective” for “(Cucumber)/Protective”, “conidia” for “spore”, “the apple scab pathogen Venturia inaequalis and then remain in an incubation cabin at about 20° C. and 100% relative atmospheric humidity for 1 day.” for “Sphaerotheca fuliginea.”, “21°” for “23°”, “90%.” for “70%.”

[17] = test system: Alternaria solani; test: Alternaria test (tomato)/protective; format: in vivo; details: protective, 100 g/ha, 3 days after inoculation
Description: Alternaria Test (Tomato)/Protective […] To produce a suitable preparation of active compound, 1 part by weight of active compound is mixed with the stated amounts of solvent and emulsifier, and the concentrate is diluted with water to the desired concentration. To test for protective activity, young plants are sprayed with the preparation of active compound at the stated application rate. After the spray coating has dried on, the plants are inoculated with an aqueous spore suspension of Alternaria solani. The plants are then placed in an incubation cabin at about […] and 100% relative atmospheric humidity.

[18] = test system: Botrytis cinerea; test: Botrytis test (bean)/protective; format: in vivo; details: protective, 500 g/ha, 2 days after inoculation
Description: Botrytis Test (Bean)/Protective
• Solvent: 24.5 parts by weight of acetone 24.5 parts by weight of dimethylacetamide • Emulsifier: 1 part by weight of alkyl-arylpolyglycol ether
To produce a suitable preparation of active compound, 1 part by weight of active compound is mixed with the stated amounts of solvent and emulsifier, and the concentrate is diluted with water to the desired concentration.
To test for protective activity, young plants are sprayed with the preparation of active compound at the stated application rate. After the spray coating has dried on, two small pieces of agar colonized by Botrytis cinerea are placed onto each leaf. The inoculated plants are placed in a dark chamber at about 20° C. and 100% relative atmospheric humidity.
2 days after the inoculation, the size of the infested areas on the leaves is evaluated. 0% means an efficacy which corresponds to that of the control, whereas an efficacy of 100% means that no infection is observed.

Cc1sc(-c2ccc(Cl)cc2)nc1C1=C(O)C2(CCCCC2)CC1=O [Example I-1-a-2]
Kill rate in % after 7 d [1]: 100% | % damage, Alopecurus [2]: 90% | % damage, Avena fatua [3]: 100% | % damage, Setaria [4]: 100% | % damage, Sinapis [5]: 80% | % damage, Wheat [6]: 0% | % damage, Soya bean [7]: 0% | % damage, Digitaria [8]: 100% | % damage, Lolium [9]: 100% | % damage, Setaria [10]: 100% | % damage, Matricana [11]: 95% | ED50 value [12]: <0.1 ppm | ED50 value [13]: <0.1 ppm | ED50 value [14]: <0.1 ppm | % efficacy [15]: 100% | % efficacy [16]: 91% | % efficacy [17]: 93% | % efficacy [18]: 92%
